22 compounds from US5439904A, “2-spiro(2'-spirocycloalkyl)cyclopropyl cephalosporin sulfones as antiinflammatory and antigenerative agents” (Synphar Laboratories, Inc., priority 1993, dated 1995) can be followed below.

The structures appear in SMILES notation. pIC50: −log10 of the molar value.

The target in this assay is T1, HLE (Homo sapiens, UniProt P08246).
T1 construct: Purified elastase from human white blood cells; from tissue; host or cells: human white blood cells (purified enzyme)
T1 sequence (P08246 30-247 limits assumed): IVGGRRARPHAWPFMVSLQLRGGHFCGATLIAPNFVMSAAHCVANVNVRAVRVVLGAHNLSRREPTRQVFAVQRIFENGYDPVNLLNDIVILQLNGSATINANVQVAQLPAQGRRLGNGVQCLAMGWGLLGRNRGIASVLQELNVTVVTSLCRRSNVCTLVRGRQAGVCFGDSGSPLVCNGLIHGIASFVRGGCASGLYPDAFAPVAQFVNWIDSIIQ
Put plainly: Enzyme assay for inhibition of HLE (human leukocyte elastase). The following applies: purified elastase from human white blood cells, 10 nM; 10 minute preincubation; 0.35 mM MeO-succinyl-L-alanyl-L-alanyl-L-prolyl-L-valine-p-nitroanilide; pH 7.6; 10% dimethylsulfoxide; 410 nm; read-out: IC50 values against HLE. Format: biochemical. On the procedure:
ENZYME ASSAY FOR INHIBITION OF HLE
ENZYME: Purified elastase from human white blood cells.
MeO-succinyl-L-alanyl-L-alanyl-L-prolyl-L-valine-
10 mM phosphate buffer (pH 7.6)
The enzyme activity was determined by monitoring the increase in absorbance at 410 nm caused by the hydrolysis of chromogenic substrates. Inhibition of enzyme by the compounds described were determined after a 10 minute preincubation with the enzyme in the reaction mixture minus substrate. Reaction was initiated by the addition of substrate. The concentration of human leukocyte elastase used for assay was at 10 nM.
Consider `CO[C@H]1C(=O)N2C(C(=O)N3CCN(C)CC3)=C(C)C3(CC34CCCC4)S(=O)(=O)C12` (stereo partly shown) [Compound 3], for which the negative-log IC50 (pIC50) (as a rule, the negative decadic logarithm of the IC50, by convention in mol/L) is 7.61.
In the case of `CO[C@H]1C(=O)N2C(C(=O)N3CCN(CC(=O)O)CC3)=C(C)C3(CC34CCCC4)S(=O)(=O)C12` (stereo partly shown) [Compound 4], the pIC50 was 6.86.
To `CO[C@H]1C(=O)N2C(C(=O)N3CCC(C(=O)O)CC3)=C(C)C3(CC34CCCC4)S(=O)(=O)C12` (stereo partly shown) [Compound 5] belongs 7.24; to `CO[C@H]1C(=O)N2C(C(=O)N3CCN(C)CC3)=C(C)C3(CC34CCCCC4)S(=O)(=O)C12` (stereo partly shown) [Compound 7], 8.19; to `CO[C@H]1C(=O)N2C(C(=O)N3CCN(CC(=O)OC(C)(C)C)CC3)=C(C)C3(CC34CCCCC4)S(=O)(=O)C12` (stereo partly shown) [Compound 8], 8.08.
In the case of `CO[C@H]1C(=O)N2C(C(=O)N3CCN(CC(=O)O)CC3)=C(C)C3(CC34CCCCC4)S(=O)(=O)C12` (stereo partly shown) [Compound 9], the negative logarithm of the IC50 (pIC50) was 7.57.
The figure for `CO[C@H]1C(=O)N2C(C(=O)N3CCN(C)CC3)=C(C)C3(CC34CCCCC4)S(=O)(=O)C12` (stereo partly shown) [Compound 10] is 8.08; for `CO[C@H]1C(=O)N2C(C(=O)OC(C)(C)C)=C(COC(C)=O)C3(CC34CCCC4)S(=O)(=O)C12` (stereo partly drawn) [Compound 11, t-Butyl-7α-methoxy-2-spiro(2'-spirocyclopentyl)cyclopropyl-3-acetoxymethyl-3-cephem-4-carboxylate-1,1-dioxide] it is 8.04.
The figure for `CO[C@H]1C(=O)N2C(C(=O)OC(C)(C)C)=C(CSc3nc(=O)c(O)nn3C)C3(CC34CCCC4)S(=O)(=O)C12` (stereo partly shown) [Compound 12] is 7.82; for `CO[C@H]1C(=O)N2C(C(=O)OC(C)(C)C)=C(CSc3ccccn3)C3(CC34CCCC4)S(=O)(=O)C12` (stereo partly shown) [Compound 13] it is 8.03.
To `CO[C@H]1C(=O)N2C(C(=O)OC(C)(C)C)=C(CSc3nnnn3C)C3(CC34CCCC4)S(=O)(=O)C12` (stereo partly shown) [Compound 14] belongs 7.82; to `CO[C@H]1C(=O)N2C(C(=O)OC(C)(C)C)=C(CSc3nnc(C)s3)C3(CC34CCCC4)S(=O)(=O)C12` (stereo partly shown) [Compound 15], 7.99.
Regarding `CO[C@H]1C(=O)N2C(C(=O)N3CCCCC3)=C(CSc3nc(=O)c(O)nn3C)C3(CC34CCCC4)S(=O)(=O)C12` (stereo partly shown) [Compound 16], the pIC50 was 7.49.
The figure for `CC1=C(C(=O)N2CCC(C(=O)OC(C)(C)C)CC2)N2C(=O)CC2S(=O)(=O)C12CC21CCCC1` (stereo not shown) [Compound 17] is 6.06.
To `CO[C@H]1C(=O)N2C(C(C)=O)=C(C)C3(CC34CCCC4)S(=O)(=O)C12` (stereo partly shown) [Compound 18] belongs 7.97.
As to `CON=C(C)C1=C(C)C2(CC23CCCC3)S(=O)(=O)C2[C@@H](OC)C(=O)N12` (stereo partly shown) [Compound 19], the pIC50 is 7.09.
The figure for `CO[C@H]1C(=O)N2C(C(=O)N3CCC(C(N)=O)CC3)=C(C)C3(CC34CCCC4)S(=O)(=O)C12` (stereo partly shown) [Compound 20] is 8.08; for `CO[C@H]1C(=O)N2C(C(=O)c3ccccc3)=C(C)C3(CC34CCCC4)S(=O)(=O)C12` (stereo partly shown) [Compound 21] it is 8.41.
In the case of `CC1=C(C(=O)OC(c2ccccc2)c2ccccc2)N2C(=O)CC2S(=O)(=O)C12CC21CCCC1` (stereo not shown) [Compound 22, benzhydryl 7,7-dihydro-2-spiro(2'-spirocyclopentyl)-cyclopropyl-3-methyl-3-cephem-4-carboxylate-1,1-dioxide], the pIC50 was 6.32.
For `COC1C(=O)N2C(C(=O)N(C)CC(=O)O)=C(C)C3(CC34CCCC4)S(=O)(=O)C12` (stereo not shown) [Compound 23], the negative logarithm of the IC50 (pIC50) is 7.12.
`CO[C@H]1C(=O)N2C(C(=O)N3CCC(C(=O)O)CC3)=C(CSc3nc(=O)c(O)nn3C)C3(CC34CCCC4)S(=O)(=O)C12` (stereo partly shown) [Compound 24]: the pIC50 was 7.47.
As to `CO[C@H]1C(=O)N2C(C(=O)N3CCN(C)CC3)=C(C)C3(CC34CCCC4)S(=O)(=O)C12` (stereo partly shown) [drawing 6], the pIC50 was 7.56.
